Target: T1, Squalene synthase (Rattus norvegicus, UniProt Q02769)
T1 sequence (Q02769 whole entry): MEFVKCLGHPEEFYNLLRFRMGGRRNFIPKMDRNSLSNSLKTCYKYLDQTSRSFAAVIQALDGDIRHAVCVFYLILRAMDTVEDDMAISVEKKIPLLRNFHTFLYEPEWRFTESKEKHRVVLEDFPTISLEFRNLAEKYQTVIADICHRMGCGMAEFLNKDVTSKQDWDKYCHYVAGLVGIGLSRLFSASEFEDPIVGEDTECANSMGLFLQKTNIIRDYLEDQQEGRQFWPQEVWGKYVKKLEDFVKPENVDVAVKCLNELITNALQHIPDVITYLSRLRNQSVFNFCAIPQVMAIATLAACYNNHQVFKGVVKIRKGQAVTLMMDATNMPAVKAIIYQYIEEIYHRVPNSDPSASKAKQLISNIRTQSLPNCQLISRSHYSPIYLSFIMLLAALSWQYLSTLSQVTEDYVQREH
Experiment: Compound was evaluated for its inhibitory activity against rat hepatic squalene synthase at a concentration of 1000 uM; NI = No inhibition; call rule not given here

Row | SMILES | IC50
1 | C[N+](C)(CCCCS(=O)(=O)[O-])CCc1ccccc1 | Not Active
2 | C[N+](C)(CCCCS(=O)(=O)[O-])Cc1ccccc1 | Not Active

Target: T1, Squalene synthase
Experiment: Inhibitory activity against rat hepatic squalene synthase

Row | SMILES | IC50
3 | CC(C)=CCC/C(C)=C/CC/C(C)=C/C[N+](C)(C)CCCCS(=O)(=O)[O-] | 15 µM
4 | C[N+](C)(CCCCc1ccc(-c2ccccc2)cc1)CCCCS(=O)(=O)[O-] | 25 µM
5 | C[N+](C)(CCCCCCc1ccc(-c2ccccc2)cc1)CCCCS(=O)(=O)[O-] | 60 µM
6 | C[N+](C)(CCCCCc1ccc(-c2ccccc2)cc1)CCCCS(=O)(=O)[O-] | 5 µM
7 | C[N+](C)(CCCCCCCCCCc1ccccc1)CCCCS(=O)(=O)[O-] | 6 µM
8 | C[N+](C)(CCCCCCCCCc1ccccc1)CCCCS(=O)(=O)[O-] | 2 µM
9 | C[N+](C)(CCCCCCCCc1ccccc1)CCCCS(=O)(=O)[O-] | 8 µM
10 | C[N+](C)(CCCCCCc1ccccc1)CCCCS(=O)(=O)[O-] | 100 µM

— ChEMBL document CHEMBL1151086, “Sulfobetaine zwitterionic inhibitors of squalene synthase” (Bioorg Med Chem Lett, 1996)
